US8551984B2, “Aminopyrimidines as SYK inhibitors” (Merck Sharp & Dohme Corp., priority 2009, dated 2013)

Biological target: recombinant human SYK (GST-hSYK fusion protein) (Homo sapiens, UniProt P43405)
Conditions: read-out: rhS YK Activity; Table 113C
From the text: Homogeneous Time-Resolved Fluorescence (HTRF) Assay for the Recombinant Human SYK Enzyme:

Row | IC50 [nM] | SMILES
1 | < 100 | Cc1cc(Nc2nccc(C(C)C)n2)cc(-c2cnc(C3(O)CCCNCC3)s2)c1 (stereo not shown) [113C-14]

Same assay, conditions: read-out: rhSYK Activity (IC50); recombinant human GST-SYK 5 pM, ATP 25 μM, biotinylated substrate peptide 250 nM, HTRF, 10-dose titration

Row | SMILES | IC50 [nM]
2 | Cc1cc(Nc2nccc(C(C)O)n2)cc(-c2cnc(C3(O)CCC(C(=O)O)C(C)(C)C3)s2)c1 (single isomer, unassigned) [Example 100A-15] | < 100
3 | Cc1cc(Nc2nccc(C(O)C3CC3)n2)cc(-c2cnc(C3(O)CCC(C(=O)O)C(C)(C)C3)s2)c1 (single isomer, unassigned) [Example 100A-19] | < 100
4 | Cc1cc(Nc2nccc(C(F)C3CC3)n2)cc(-c2cnc(C3(O)CCC(C(=O)O)C(C)(C)C3)s2)c1 (single isomer, unassigned) [Example 100A-22] | < 100
5 | Cc1cc(Nc2nccc(C(C)(O)C3CC3)n2)cc(-c2cnc(C3(O)CCC(C(=O)O)C(C)(C)C3)s2)c1 (single isomer, unassigned) [Example 100A-26] | < 100
6 | Cc1cc(Nc2nccc(OC3CNC3)n2)cc(-c2cnc(C3(O)CCC3)s2)c1 [Example 94A-28] | < 100
7 | Cc1cc(Nc2nccc(OC3CCNCC3F)n2)cc(-c2cnc(C(C)(O)C(F)(F)F)s2)c1 (stereo not shown) [Example 94B-7] | < 100
8 | Cc1cc(Nc2nccc(O[C@@H]3CCNC3)n2)cc(-c2cnc(C(C)(O)C(F)(F)F)s2)c1 (stereo partly shown) [Example 94B-8] | < 100
9 | Cc1cc(Nc2nc(C)cc(C)n2)cc(-c2cnc(C3(O)CCC(C(=O)O)C(C)(C)C3)s2)c1 (stereo not shown) [Example 100A-10] | 100 to 1000

Other lines, results leading:

Row | IC50 [nM] | SMILES
10 | < 100 | Cc1cc(Nc2nccc(C(F)(F)F)n2)cc(-c2cnc(CNC(CO)C(C)O)s2)c1 (single isomer, unassigned) [Example 88A-44]
11 | < 100 | Cc1cc(Nc2nccc(C(F)(F)F)n2)cc(-c2cnc(C(=O)NCC(O)CO)s2)c1 (stereo not shown) [Example 87A-3]
12 | < 100 | Cc1cc(Nc2nccc(C(F)(F)F)n2)cc(-c2cnc(C(=O)NC[C@@H](O)CO)s2)c1 [Example 87A-4]
13 | < 100 | COC(=O)[C@H]1C[C@@H](O)CN1C(=O)c1ncc(-c2cc(C)cc(Nc3nccc(C(F)(F)F)n3)c2)s1 [Example 87B-23]
14 | < 100 | Cc1cc(Nc2nccc(C(F)(F)F)n2)cc(-c2cnc(C(=O)N3CC(O)CC3C(=O)O)s2)c1 (stereo not shown) [Example 87B-24]

Same assay, conditions: read-out: rhSYK Activity; Table 8A

Row | IC50 [nM] | SMILES
15 | < 100 | Cc1cc(Nc2nccc(C(F)(F)F)n2)cc(-c2cnc(C3(O)CCC(O)C(C)(C)C3)s2)c1 (stereo not shown) [8A-7]

Same assay, conditions: read-out: rhSYK Activity; Table 33-A

Row | SMILES | IC50 [nM]
16 | Cc1cc(Nc2nccc(C)n2)cc(-c2cnc(C3(O)CCC(CC(=O)O)CC3)s2)c1 (stereo not shown) [Example 33A-33] | < 100
17 | COc1ccnc(Nc2cc(C)cc(-c3cnc(C4(O)CCC(C(=O)O)CC4)s3)c2)n1 (stereo not shown) [Example 33A-36] | < 100
18 | COc1ccnc(Nc2cc(C)cc(-c3cnc(C4(O)CCC(C)(C(=O)O)CC4)s3)c2)n1 (stereo not shown) [Example 33A-37] | < 100
19 | Cc1cc(Nc2ncc(F)c(C3CC3)n2)cc(-c2cnc(C3(O)CCC(C(=O)O)C(C)(C)C3)s2)c1 (stereo not shown) [Example 33A-41] | < 100
20 | Cc1cc(Nc2nccc(C3CC3)n2)cc(-c2cnc(C3(O)CCC(C(=O)O)C(C)(C)C3)s2)c1 (stereo not shown) [Example 33A-42] | < 100
21 | Cc1cc(Nc2nccc(C)n2)cc(-c2cnc(C3(O)CCC(C(=O)O)C(C)(C)C3)s2)c1 (stereo not shown) [Example 33A-68] | < 100

More lines, now with the values ahead:

Row | IC50 [nM] | SMILES
22 | < 100 | Cc1cc(Nc2nccc(C(F)(F)F)n2)cc(-c2cnc(C3(O)CCC(C(=O)O)CC3)s2)c1 (stereo not shown) [Example 33A-6]
23 | < 100 | Cc1cc(Nc2nccc(C(F)(F)F)n2)cc(-c2cnc(C3(O)CCC(CCC(=O)O)CC3)s2)c1 (stereo not shown) [Example 33A-19]
24 | < 100 | Cc1cc(Nc2nccc(C(F)(F)F)n2)cc(-c2cnc(C3(O)CCC(CCC(=O)O)CC3)s2)c1 (stereo not shown) [Example 33A-20]
25 | < 100 | CC1(C)CC(O)(c2ncc(-c3cc(CO)cc(Nc4nccc(C(F)(F)F)n4)c3)s2)CCC1C(=O)O (stereo not shown) [Example 33A-53]
26 | < 100 | Cc1cc(Nc2nccc(C(F)(F)F)n2)cc(-c2cnc(C3(O)CCC(C(=O)O)C(C)(C)C3C)s2)c1 (stereo not shown) [Example 33A-76]

Same assay, conditions: read-out: rhSYK Activity; Table 33B

Row | SMILES | IC50 [nM]
27 | Cc1cc(Nc2nccc(C)n2)cc(-c2cnc(C3(O)CCC(C(=O)O)C(C(C)C)C3)s2)c1 (stereo not shown) [Example 33B-34] | < 100
28 | Cc1cc(Nc2nccc(C)n2)cc(-c2cnc(C3(O)CCC(C(=O)O)C(C(C)C)C3)s2)c1 (stereo not shown) [Example 33B-36] | < 100

Other lines, results leading:

Row | IC50 [nM] | SMILES
29 | < 100 | Cc1cc(Nc2nccc(C(F)(F)F)n2)cc(-c2cnc(C3(O)CCCC(C(=O)O)C(C)(C)C3)s2)c1 (stereo not shown) [Example 33B-8]
30 | < 100 | Cc1cc(Nc2nccc(C(F)(F)F)n2)cc(-c2cnc(C3(O)CCCC(C(=O)O)C(C)(C)C3)s2)c1 (stereo not shown) [Example 33B-9]
31 | < 100 | Cc1cc(Nc2nccc(C(F)(F)F)n2)cc(-c2cnc(C3(O)CCCC(C(=O)O)C(C)(C)C3)s2)c1 (stereo not shown) [Example 33B-10]
32 | < 100 | Cc1cc(Nc2nccc(C(F)(F)F)n2)cc(-c2cnc(C3(O)CCCC(C(=O)O)C(C)(C)C3)s2)c1 (stereo not shown) [Example 33B-12]
33 | < 100 | Cc1cc(Nc2nccc(C)n2)cc(-c2cnc(C3(O)CCC(C(=O)O)C(C)C3)s2)c1 (stereo not shown) [Example 33B-32]

Same assay, conditions: read-out: rhSYK Activity; Table 33C

Row | IC50 [nM] | SMILES
34 | < 100 | Cc1cc(Nc2nccc(C(F)(F)F)n2)cc(-c2cnc(C3(O)C[C@@H]4C(C(=O)O)[C@@H]4C3)s2)c1 (stereo partly shown) [Example 33C-10]
35 | < 100 | CCOC(=O)C1[C@H]2CC(O)(c3ncc(-c4cc(C)cc(Nc5nccc(C(F)(F)F)n5)c4)s3)C[C@@H]12 (stereo partly shown) [Example 33C-12]
36 | < 100 | Cc1cc(Nc2nccc(C)n2)cc(-c2cnc(C3(O)CC4CCC3CC4C(=O)O)s2)c1 (stereo not shown) [Example 33C-19]

Same assay, conditions: read-out: rhSYK Activity; Table 36A

Row | IC50 [nM] | SMILES
37 | 100 to 1000 | COC(=O)C1CCC(c2ncc(-c3cccc(Nc4nccc(C(F)(F)F)n4)c3)s2)CC1 (stereo not shown) [Example 36A-5]

Same assay, conditions: read-out: rhSYK Activity; Table 54B

Row | IC50 [nM] | SMILES
38 | < 100 | Cc1cc(Nc2nccc(C(F)(F)F)n2)cc(-c2cnc(C3(O)CCN(C(N)=O)C3)s2)c1 (stereo not shown) [54B-3]
39 | < 100 | Cc1cc(Nc2nccc(C(F)(F)F)n2)cc(-c2cnc(C3(O)CCN(C(N)=O)C3)s2)c1 (stereo not shown) [54B-7]
40 | < 100 | Cc1cc(Nc2nccc(C)n2)cc(-c2cnc(C3(O)CCN(C(N)=O)C3)s2)c1 (stereo not shown) [54B-14]
41 | < 100 | Cc1cc(Nc2nccc(C)n2)cc(-c2cnc(C3(O)CCN(C(N)=O)C3)s2)c1 (stereo not shown) [54B-15]

Same assay, conditions: read-out: rhSYK Activity; Table 54D

Row | IC50 [nM] | SMILES
42 | < 100 | Cc1cc(Nc2nccc(C(C)C)n2)cc(-c2cnc(C3(O)CCCN(C(=O)C(C)O)CC3)s2)c1 (stereo not shown) [Example 54D-3]
43 | < 100 | Cc1cc(Nc2nccc(C(F)(F)F)n2)cc(-c2cnc(C3(O)CCCN(C(=O)c4cnn[nH]4)CC3)s2)c1 (stereo not shown) [Example 54D-35]
44 | < 100 | Cc1cc(Nc2nccc(C(F)(F)F)n2)cc(-c2cnc(C3(O)CCCN(C(=O)c4n[nH]c(=O)[nH]4)CC3)s2)c1 (stereo not shown) [Example 54D-63]
45 | < 100 | Cc1cc(Nc2nccc(C(F)(F)F)n2)cc(-c2cnc(C3(O)CCCN(C(=O)CC4CCOC4)CC3)s2)c1 (stereo not shown) [Example 54D-69]
46 | < 100 | Cc1cc(Nc2nccc(C(F)(F)F)n2)cc(-c2cnc(C3(O)CCCN(C(=O)Cc4n[nH]c(=O)[nH]4)CC3)s2)c1 (stereo not shown) [Example 54D-94]

Same assay, conditions: read-out: rhSYK Activity; Table 54E

Row | IC50 [nM] | SMILES
47 | < 100 | Cc1cc(Nc2nccc(C(F)(F)F)n2)cc(-c2cnc(C3(O)CCC(NC(=O)CC4CCCO4)CC3)s2)c1 (stereo not shown) [Example 54E-19]

Same assay, conditions: read-out: rhSYK Activity; Table 74A

Row | IC50 [nM] | SMILES
48 | 100 to 1000 | CC(C)(c1ncc(-c2cc(F)cc(Nc3nccc(C(F)(F)F)n3)c2)s1)S(N)(=O)=O [74A-10]

Same assay, conditions: read-out: rhSYK Activity; Table 108A

Row | IC50 [nM] | SMILES
49 | < 100 | Cc1cc(Nc2nccc(OC3CCCNCC3)n2)cc(-c2cnc(C3(O)CCC3)s2)c1 (stereo not shown) [Example 108A-10]
50 | < 100 | Cc1cc(Nc2nccc(OC3CCCNCC3)n2)cc(-c2cnc(C3(O)CCC3)s2)c1 (stereo not shown) [Example 108A-11]

Same assay, conditions: read-out: rhSYK Activity; Table 113A

Row | SMILES | IC50 [nM]
51 | CCc1ccnc(Nc2cc(C)cc(-c3cnc(C4(O)CCC(C(=O)O)C(C)C4)s3)c2)n1 (stereo not shown) [Example 113A-15] | < 100
52 | Cc1ccnc(Nc2cc(-c3cnc(C4(O)CCC(C(=O)O)C(C)C4)s3)cc(C3CC3)c2)n1 (stereo not shown) [Example 113A-24] | < 100
53 | CCOC(=O)C1CCC(O)(c2ncc(-c3cc(C)cc(Nc4nccc(CC)n4)c3)s2)CC1C (stereo not shown) [Example 113A-32] | < 100
54 | COCCOc1ccnc(Nc2cc(C)cc(-c3cnc(C4(O)CCC(C(=O)O)C(C)C4)s3)c2)n1 (stereo not shown) [Example 113A-39] | < 100
55 | COCCCOc1ccnc(Nc2cc(C)cc(-c3cnc(C4(O)CCC(C(=O)O)C(C)C4)s3)c2)n1 (stereo not shown) [Example 113A-41] | < 100
56 | CCOC(=O)C1CCC(O)(c2ncc(-c3cc(C)cc(Nc4nccc(OCCOC)n4)c3)s2)CC1C (stereo not shown) [Example 113A-44] | < 100
57 | CCOC(=O)C1CCC(O)(c2ncc(-c3cc(C)cc(Nc4nccc(OCCCOC)n4)c3)s2)CC1C (stereo not shown) [Example 113A-48] | < 100
58 | Cc1cc(Nc2nccc(C)n2)cc(-c2cnc(C3(O)CCC(C(=O)O)C(C)C3C)s2)c1 (stereo not shown) [Example 113A-67] | < 100
59 | Cc1cc(Nc2nccc(C)n2)cc(-c2cnc(C3(O)CCC(C(=O)O)C(C)C3C)s2)c1 (stereo not shown) [Example 113A-68] | < 100
60 | Cc1cc(Nc2nccc(C)n2)cc(-c2cnc(C3(O)CCC(C(=O)O)C(C)C3C)s2)c1 (stereo not shown) [Example 113A-69] | < 100
61 | CCOC(=O)C1CCC(O)(c2ncc(-c3cc(C)cc(Nc4nccc(C)n4)c3)s2)C(C)C1C (stereo not shown) [Example 113A-71] | < 100
62 | CCOC(=O)C1CCC(O)(c2ncc(-c3cc(C)cc(Nc4nccc(C)n4)c3)s2)C(C)C1C (stereo not shown) [Example 113A-72] | < 100

Results, then the compound that gave them:

Row | IC50 [nM] | SMILES
63 | < 100 | Cc1cc(Nc2nccc(C)n2)cc(-c2cnc(C3(O)CCC(C(=O)O)C(C)C3)s2)c1 (stereo not shown) [Example 113A-5]
64 | < 100 | Cc1cc(Nc2nccc(C)n2)cc(-c2cnc(C3(O)CCC(C(=O)O)C(C)C3)s2)c1 (stereo not shown) [Example 113A-6]
65 | < 100 | Cc1cc(Nc2nccc(C)n2)cc(-c2cnc(C3(O)CCC(C(=O)O)C(C)C3)s2)c1 (stereo not shown) [Example 113A-7]

Same assay, conditions: read-out: rhSYK Activity; Table 116A

Row | IC50 [nM] | SMILES
66 | < 100 | Cc1cc(Nc2nccc(C(F)F)n2)cc(-c2cnc(C3(O)CCC(C(=O)O)C(C)C3)s2)c1 (stereo not shown) [116A-19]
67 | < 100 | Cc1cc(Nc2ncc(Cl)c(C)n2)cc(-c2cnc([C@]3(O)CC[C@@H](C(=O)O)C(C)(C)C3)s2)c1 [116A-26]
